Measured values as given in US9492495B2, “Therapeutic use of agonists or antagonists of bradykinin receptor 1 or 2, for modulation collateral blood vessel growth” (MAX-DELBRUECK-CENTRUM FUER MOLEKULARE MEDIZIN, priority 2010, dated 2016).

Columns and labels:
[1] = test system: cerebral arteriogenesis (posterior cerebral artery collateral pathway); assay: 3-vessel occlusion (3-VO) cerebral arteriogenesis model: collateral growth / posterior cerebral artery diameter; format: in vivo, rat; conditions: for arteriogenesis (collateral growth) / cerebral arteriogenesis: rat 3-VO model; for arteriogenesis (collateral growth): antagonist treatment, 3 weeks post 3-VO (FIG. 5); for artery diameter changes (posterior cerebral artery) / collateral arterial growth: rat 3-VO, 3 weeks; for artery diameter changes (posterior cerebral artery): compared with untreated controls; for collateral arterial growth: ipsilateral and contralateral collateral pathways (FIGS. 5B and 5C); for cerebral arteriogenesis: BR1 agonist treatment, 1 week post 3-VO (FIG. 6)
Description: Pharmacological modulation of arteriogenesis was analyzed using a 3 vessel occlusion (3-VO) model for cerebral arteriogenesis in the rat (Occlusion of both vertebral arteries and one carotid artery). Upon occlusion of three of four blood-supplying arteries to the brain, blood flow is redistributed by the recruitment of collateral pathways such as the posterior cerebral artery to supply the hypoperfusion area with blood. The 3-VO model in the rat has been established since 2003 and is acknowledged as a hypoperfusion model for testing cerebral arteriogenesis (Busch, Buschmann et al. 2003). By using the 3-VO model, relevant therapeutic stimulation of arteriogenesis was shown for instance by the application of GM-CSF (Buschmann, Circulation 2003). Either by inhibition or stimulation of the bradykinin receptor signaling pathways, arteriogenesis was determined and physiological parameters of the brain were tested. […] The characterization of arteriogenesis was carried out via measurement of the artery or blood vessel diameter (posterior cerebral artery-PCA) in addition to via a measurement of the cerebrovascular reactivity (perfusion reserves in the brain). Cerebrovascular anatomy was studied after maximal vasodilation by a modification of the postmortem latex perfusion method of Maeda et al (Maeda, Hata et al. 1998).

[2] = test system: cerebrovascular reactivity (perfusion reserves in the brain); assay: 3-VO cerebral arteriogenesis model: cerebrovascular reactivity (acetazolamide, laser-doppler); format: in vivo; conditions: rat; for cerebrovascular reactivity (CVR), increase in blood flow: three weeks after 3-VO (FIG. 5D)
Description: Pharmacological modulation of arteriogenesis was analyzed using a 3 vessel occlusion (3-VO) model for cerebral arteriogenesis in the rat (Occlusion of both vertebral arteries and one carotid artery). Upon occlusion of three of four blood-supplying arteries to the brain, blood flow is redistributed by the recruitment of collateral pathways such as the posterior cerebral artery to supply the hypoperfusion area with blood. The 3-VO model in the rat has been established since 2003 and is acknowledged as a hypoperfusion model for testing cerebral arteriogenesis (Busch, Buschmann et al. 2003). By using the 3-VO model, relevant therapeutic stimulation of arteriogenesis was shown for instance by the application of GM-CSF (Buschmann, Circulation 2003).
The characterization of arteriogenesis was carried out via measurement of the artery or blood vessel diameter (posterior cerebral artery—PCA) in addition to via a measurement of the cerebrovascular reactivity (perfusion reserves in the brain). Cerebrovascular anatomy was studied after maximal vasodilation by a modification of the postmortem latex perfusion method of Maeda et al (Maeda, Hata et al. 1998).
CVR is reduced through selective inhibition of the bradykinin B1 and B2 signaling pathways. Negative CVR values are based on the Steal phenomenon (Kuwabara, Ichiya et al. 1995). (FIG. 5D). Upon increase of the CO2 partial pressure under normal conditions, vessels in the brain are capable of increasing blood flow to around 20% of the normal blood flow. Directly after the 3-VO experiment no cerebrovascular reactivity is detectable anymore. Blood flow recovers within 3 weeks post 3-VO and the perfusion reserve is restored to around 10%.

[3] = relative to the natural ligand Lys-desArg-bradykinin; cited from earlier work
Bradykinin receptor 1 [4] = biological target: T1, Bradykinin receptor 1 (Homo sapiens, UniProt P46663); conditions: described as moderate; cited from earlier work
T1 sequence (P46663 1-353): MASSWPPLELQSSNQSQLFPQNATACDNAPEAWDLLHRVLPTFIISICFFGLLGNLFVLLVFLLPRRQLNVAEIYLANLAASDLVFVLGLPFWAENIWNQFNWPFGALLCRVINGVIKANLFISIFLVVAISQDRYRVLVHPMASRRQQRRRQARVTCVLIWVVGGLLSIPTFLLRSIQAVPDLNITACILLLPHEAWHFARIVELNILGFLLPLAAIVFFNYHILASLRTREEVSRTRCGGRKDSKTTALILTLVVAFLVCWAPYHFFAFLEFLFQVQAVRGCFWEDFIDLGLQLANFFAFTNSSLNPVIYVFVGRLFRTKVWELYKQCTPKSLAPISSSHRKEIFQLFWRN

Bradykinin receptor 1 [5] = biological target: T1, Bradykinin receptor 1; conditions: described as moderate; cited from earlier work; remark: listed apart in the source

| Compound | arteriogenesis (collateral growth) [1] | artery diameter changes (posterior cerebral artery) [1] | collateral arterial growth [1] | cerebrovascular reactivity (CVR), increase in blood flow [2] | susceptibility toward proteolysis [3] | cerebral arteriogenesis [1] | cerebral arteriogenesis ([1]; listed as Sar[DPhe8]desArg-bradykinin) | diameter of the posterior cerebral artery (PCA) ([1]; rat, seven days after 3-VO, versus untreated rats after 3-VO (FIG. 6B,C)) | affinity relative to the natural ligand Lys-desArg-bradykinin (Bradykinin receptor 1 [4]) | potency relative to the natural ligand Lys-desArg-bradykinin (Bradykinin receptor 1 [5]) [fold less] | cerebrovascular reactivity (CVR) ([2]; 1 week post 3-VO (FIG. 6D)) |
| --- | --- | --- | --- | --- | --- | --- | --- | --- | --- | --- | --- |
| NC(N)=NCCC[C@@H](N)C(=O)N[C@@H](CCCN=C(N)N)C(=O)N1CCC[C@H]1C(=O)N1C[C@H](O)C[C@H]1C(=O)NCC(=O)N[C@@H](Cc1cccs1)C(=O)N[C@@H](CO)C(=O)N1Cc2ccccc2C[C@@H]1C(=O)N1[C@H](C(=O)N[C@@H](CCCN=C(N)N)C(=O)O)C[C@@H]2CCCC[C@@H]21 [HOE-140, icatibant] | inhibited | reduced collateral growth | slightly | no increase in blood flow is detected | – | – | – | – | – | – | – |
| (Des-Arg^9, Leu^8)-bradykinin [H1960] | inhibited | increase in diameter to a lesser extent than in the untreated controls | strongly reduced | no increase in blood flow is detected | – | – | – | – | – | – | – |
| Sar-[D-Phe8]-des-Arg9-bradykinin [R838] | – | – | – | – | lower susceptibility toward proteolysis | stimulated therapeutically | therapeutically enhanced | significantly greater | about 11 fold less | ~2 | significantly increased |
